Test results as given in ChEMBL document CHEMBL4152199, “Discovery of 6-chloro-2-(propylthio)-8,9-dihydro-7H-purines containing a carboxamide moiety as potential selective anti-lung cancer agents” (Eur J Med Chem, 2018).
Activity calls are given as the source filed them. The calls are words filed in the database; no cut-off is given here.

What was measured:
MGC-803 = assay: Antiproliferative activity against human MGC803 cells after 72 hrs by MTT assay; format: functional, cell-based; details: MGC-803, 72 h
PC-3 = assay: Antiproliferative activity against human PC3 cells after 72 hrs by MTT assay; format: functional, cell-based; details: PC-3, 72 h
A549 [1] = assay: Antiproliferative activity against human A549 cells after 72 hrs by MTT assay; format: functional, cell-based; details: A549, 72 h
TE-1 = assay: Antiproliferative activity against human TE1 cells after 72 hrs by MTT assay; format: functional, cell-based; details: TE-1, 72 h
[2] = Selectivity index, ratio of IC50 for human GES-1 cells to IC50 for human A549 cells; format: toxicity; details: GES-1 cells versus A549 cells, read-out: Ratio IC50
A549 [3] = assay: Induction of apoptosis in human A549 cells assessed as cell rounding at 2 uM after 72 hrs by Hoechst 33258 staining based fluorescence microscopic method; format: functional
A549 [4] = assay: Anticlonogenic activity against human A549 cells at 1 uM after 10 days by crystal violet staining based assay relative to control; format: functional
A549 [5] = assay: Antimigratory activity in human A549 cells after 72 hrs by Hoechst 33258 staining based transwell assay; format: functional, cell-based
A549 [6] = assay: Downregulation of vimentin expression in human A549 cells up to 2 uM after 72 hrs by Western blot analysis; format: functional, cell-based
A549 [7] = assay: Induction of apoptosis in human A549 cells assessed as increase in Bax level up to 2 uM after 72 hrs by Western blot analysis; format: functional, cell-based
A549 [8] = assay: Induction of apoptosis in human A549 cells after 72 hrs by Annexin-V-FITC/propidium iodide staining based flow cytometric analysis; format: functional, cell-based
A549 [9] = assay: Induction of apoptosis in human A549 cells assessed as chromatin shrinkage at 2 uM after 72 hrs by Hoechst 33258 staining based fluorescence microscopic method; format: functional, cell-based
A549 [10] = assay: Induction of apoptosis in human A549 cells assessed as induction of apoptotic bodies at 2 uM after 72 hrs by Hoechst 33258 staining based fluorescence microscopic method; format: functional, cell-based
A549 [11] = assay: Up regulation of E-cadherin expression in human A549 cells up to 2 uM after 72 hrs by Western blot analysis; format: functional, cell-based
A549 [12] = assay: Induction of apoptosis in human A549 cells assessed as reduction in Bcl-2 level up to 2 uM after 72 hrs by Western blot analysis; format: functional, cell-based
A549 [13] = assay: Anticlonogenic activity against human A549 cells after 10 days by crystal violet staining based assay; format: functional, cell-based
A549 [14] = assay: Downregulation of N-cadherin expression in human A549 cells up to 2 uM after 72 hrs by Western blot analysis; format: functional, cell-based
GES1 = assay: Antiproliferative activity against human GES-1 cells after 72 hrs by MTT assay; format: cell-based; details: GES1, 72 h
A549 [15] = assay: Antimigratory activity in human A549 cells after 72 hrs by inverted microscopic based wound healing assay; format: functional, cell-based
A549 [16] = assay: Antiinvasive activity in human A549 cells after 72 hrs by Hoechst 33258 staining based matrigel assay; format: functional, cell-based

Structure (SMILES)	IC50 (MGC-803) [µM]	IC50 (PC-3) [µM]	IC50 (A549 [1]) [µM]	IC50 (TE-1) [µM]	further results
CCCSc1nc(Cl)c2c(n1)N(Cc1ccccc1)C(C(=O)NCCCN1CCOCC1)N2 (configuration not stated)	> 64	45.1	42.2	51.1	
CCCSc1nc(Cl)c2c(n1)N(Cc1ccccc1)C(C(=O)NCCc1ccccc1)N2 (configuration not stated)	46.9	41.3	36.7	31.2	
CCCSc1nc(Cl)c2c(n1)N(Cc1ccccc1)C(C(=O)N1CCSCC1)N2 (configuration not stated)	31.3	47.9	> 64	47.8	
CCCSc1nc(Cl)c2c(n1)N(Cc1ccccc1)C(C(=O)NCCCc1ccccc1)N2 (configuration not stated)	16.9	12.7	9.43	22.9	
CCCSc1nc(Cl)c2c(n1)N(Cc1ccccc1)C(C(=O)O)N2 (configuration not stated)	> 64	49.2	10.7	> 64	
CCCSc1nc(Cl)c2c(n1)N(Cc1ccco1)C(C(=O)N1CCN(C)CC1)N2 (configuration not stated)	53.8	11.3	13.6	35	
CCCSc1nc(Cl)c2c(n1)N(CC1CCCCC1)C(C(=O)N1CCN(C)CC1)N2 (configuration not stated)	> 64	12.8	13.2	> 64	
CCCSc1nc(Cl)c2c(n1)N(CCNC(=O)OC(C)(C)C)C(C(=O)N1CCN(C)CC1)N2 (configuration not stated)	59.3	> 64	12.4	51.8	
CCCSc1nc(Cl)c2c(n1)N(CCOC)C(C(=O)N1CCN(C)CC1)N2 (configuration not stated)	> 64	62.7	61.8	> 64	
CCCSc1nc(Cl)c2c(n1)N(Cc1ccccc1)C(C(=O)Nc1ccccc1)N2 (configuration not stated)	58.4	> 64	50.2	> 64	
CCCSc1nc(Cl)c2c(n1)N(Cc1ccccc1)C(C(=O)OCC)N2 (configuration not stated)	18.5	62.5	13.8	> 64	
CCCSc1nc(Cl)c2c(n1)N(Cc1ccccc1)C(C(=O)NCCNC(=O)OC(C)(C)C)N2 (configuration not stated)	> 64	29.7	53.2	> 64	
CCCSc1nc(Cl)c2c(n1)N(Cc1ccccc1)C(C(=O)N1CCN(C)CC1)N2 (configuration not stated)	> 64	29.8	2.8	42.5	selectivity ratio [2]: 108; Activity (A549 [3]): Active; Activity (A549 [4]): 57%; Activity (A549 [5]): Dose-dependent effect; Activity (A549 [6]): Active; Activity (A549 [7]): Active; Activity (A549 [8]): Dose-dependent effect; Activity (A549 [9]): Active; Activity (A549 [10]): Active; Activity (A549 [11]): Active; Activity (A549 [12]): Active; Activity (A549 [13]): Dose-dependent effect; Activity (A549 [14]): Active; IC50 (GES1): 303 µM; Activity (A549 [15]): Dose-dependent effect; Activity (A549 [16]): Dose-dependent effect
CCCSc1nc(Cl)c2c(n1)N(Cc1ccccc1)C(C(=O)N1CCN(C(=O)OC(C)(C)C)CC1)N2 (configuration not stated)	32	47.1	29	31.2	
O=c1[nH]cc(F)c(=O)[nH]1 [FLUOROURACIL]	8.66	12.3	13.2	16.5	IC50 (GES1): 12.5 µM
CCCSc1nc(Cl)c2c(n1)N(Cc1ccccc1)C(C(=O)N1CCOCC1)N2 (configuration not stated)	30.2	53.9	> 64	43.7	
CCCSc1nc(Cl)c2c(n1)N(Cc1ccccc1)C(C(=O)NCC(C)C)N2 (configuration not stated)	58.4	> 64	48.2	46.6	
CCCSc1nc(Cl)c2c(n1)N(Cc1ccccc1)C(C(=O)NCCc1c[nH]c3ccccc13)N2 (configuration not stated)	27	> 64	48.8	30	
CCCSc1nc(Cl)c2c(n1)N(Cc1cccs1)C(C(=O)N1CCN(C)CC1)N2 (configuration not stated)	62.3	5.02	6.42	39.4	
CCCSc1nc(Cl)c2c(n1)N(Cc1ccccc1)C(C(=O)N1CCN(Cc3ccccc3)CC1)N2 (configuration not stated)	51.2	57.3	14.4	48.2	
